Assay results from US20220110902A1, “Methods of treating amyloid-beta peptide diseases” (Ecole Polytechnique Federale de Lausanne, priority 2016, published 2022).

What was measured:
[1] = test system: old mice; assay: Myriocin treatment of aged mice: muscle function and amyloid deposits; assay type: in vivo, mouse; conditions: 0.4 mg/kg intra peritoneal injection for 8 weeks
Source text: FIG. 14A is a graph showing that inhibition of ceramide synthesis resolves Aβ proteotoxic stress in human cells. […] (FIG. 14C) Myriocin, administered as described in FIG. 14B, improves grip strength, exercise capacity (distance run), balance (latency square in beamwalk), and movement coordination (rotarod latency) in old mice. (FIG. 14D) Myriocin treatment reduces amyloid deposits, as shown by immunodetection with Thioflavin S (ThS), in the muscle tissues of old mice.

[2] = test system: SH-SY5Y(APPSwe) cells; assay: Western-blot and transcript analysis in SH-SY5Y(APPSwe) cells; assay type: cell-based, human; conditions: NR 1 mM
Experimental: Human: Total RNA was extracted using guanidine-isothiocyanate lysis (PureLink, Ambion, Waltham, Mass.) from cortex samples, and RNA integrity and concentration was verified using Bioanalysis (Agilent, Santa Clara, Calif.). Samples were randomized based on diagnostic group and assayed in triplicate on a real-time PCR cycler (ABI 7500, Applied Biosystems, Foster City) in 96-well optical plates. qPCR was performed using Taqman hydrolysis probe primer sets (Applied Biosystems) specific for the following human transcripts: HSPA9, HSPD1, YMEIL1, DNM1L, BECN1, SQSTM1, PARK2, COX5A, CYC1. A primer set specific for human GAPDH was used as a control housekeeping transcript. For the APPSwe-expressing SH-SY5Y cell line, total RNA was extracted […] using TriPure RNA isolation reagent, and expression of selected transcripts was analyzed using the LightCycler480 system (Roche) and LightCycler® 480 SYBR Green I Master reagent (Roche). The GAPDH gene was used as housekeeping reference. The ddCT method was employed to determine relative levels of each amplicon. […] The SH-SY5Y neuroblastoma cell line expressing the APP Swedish K670N/M671L double mutation (APPSwe) was a kind gift of Prof. Cedazo-Minguez (Karolinska Institute, Sweden). Cells were grown in DMEM/F-12, supplemented with 10% fetal bovine serum (FBS, Gibco), GlutaMAX (100×, Gibco) and penicillin/streptomycin (1×, Gibco). Cells were selected in 4 μg/mL Geneticin® Selective Antibiotic (G418 Sulfate, Sigma) and grown for three generations before experiments with cells plated and passaged at 4×10^3 cells/ml and 60% confluence, respectively. Cells were cultured at 37° C. under a 5% CO2 atmosphere and tested for mycoplasma using Mycoprobe (#CUL001B, R&D systems) following the manufacturer's instructions. Cells were treated with 10 μg/mL dox, NR 1 or 3 mM, ISRIB 0.5 μM (Sigma), as indicated for 24 hours before cell harvesting or fixation. For the immunostaining, cells were fixed with 1× Formal-Fixx (Thermo Scientific) for 15 min. […]

[3] = test system: APP/PSEN1 AD mice; assay: NR treatment of APP/PSEN1 AD mice: cortex plaques, MSR, Oxphos proteins; assay type: in vivo, mouse; conditions: NR 400 mg/kg/day for 10 weeks
Experimental: Young (1 month old) and aged (20-24 months old) C57BL/6JRj mice were purchased from Janvier Labs. APP/PSEN1 mice (Tg(APPswe,PSEN1dE9)85Dbo/Mmjax) were purchased from JAX. C57BL/6JR mice were fed with pellets containing vehicle or NR (400 mg/kg/day) for 6-8 weeks, while APP/PSEN1 mice were fed NR pellets for 10 weeks, starting at the age of 4 months. The pellets were prepared by mixing powdered chow diet (20165, Harlan Laboratories) with water or with NR dissolved in water. Pellets were dried under a laminar flow hood for 48 hours. Mice were housed by groups of 2 to 5 animals per cage and randomized to 7-8 animals per experimental group according to their body weight. No blinding was used during the experiment procedures. Mouse: Total RNA was extracted from tissues using TriPure RNA isolation reagent (Roche) according to the product manual. Expression of selected genes was analyzed using the LightCycler480 system (Roche) and LightCycler® 480 SYBR Green I Master reagent (Roche). The beta-2-Microglobulin B2m gene was used as housekeeping reference. Mouse: Frozen cortex tissue samples were lysed by mechanical homogenization with RIPA buffer containing protease and phosphatase inhibitors, and analyzed by SDS-PAGE and western blot. Subsequently, the concentration of extracted protein was determined by using the Bio-Rad Protein Assay. Proteins were detected using the following antibodies: HSP60 (Enzo Life Science), CLPP (Sigma), anti-GAPDH (14C10) (Cell Signaling), LONP1 (Sigma), PINK1 (Novus Biologicals), LC3 A/B (Cell Signaling), SDHB (Oxphos cocktail, Abcam), MTCO1 (Abcam), Ubiquitin (Enzo), P62 (BD Transduction Laboratories), Phopsho P62 (Cell Signaling), VDAC (Abcam), β-Amyloid, 17-24 (4G8) (BioLegend). In addition to the housekeeping proteins, loading was monitored by Ponceau Red to ensure a homogeneous loading. […] Pixel intensity was quantified by using ImageJ software. […] Quantitative analysis of the immunofluorescence data was carried out by histogram analysis of the fluorescence intensity at each pixel across the images using Image J (Fiji; National Institutes of Health). […]

SMILES | balance (latency square in beamwalk) ([1]; mice 18 months or older) | exercise capacity (distance run) ([1]; mice 18 months or older) | grip strength ([1]; mice 18 months or older) | movement coordination (rotarod latency) ([1]; mice 18 months or older) | amyloid deposits in muscle tissues, Thioflavin S (ThS) ([1]; old mice) | MSR transcript levels ([2]; 24 h, dox 10 μg/mL) | oxidative phosphorylation (OXPHOS) protein levels ([2]; Western-blot) | MSR signature in cortex [3] | Oxphos protein levels in cortex [3] | Aβ deposits (plaques) in cortex, Thioflavin S ([3]; starting at 4 months of age)
CCCCCCC(=O)CCCCCC/C=C/C[C@@H](O)[C@H](O)[C@@](N)(CO)C(=O)O [Myriocin, (E,2S,3R,4R)-2-amino-3,4-dihydroxy-2-(hydroxymethyl)-14-oxoicos-6-enoic acid] | improves | improves | improves | improves | reduces | – | – | – | – | –
NC(=O)c1ccc[n+]([C@@H]2O[C@H](CO)[C@@H](O)[C@H]2O)c1 [NR, Nicotinamide Riboside triflate] | – | – | – | – | – | increased | increases | induced | induced | robustly reduced
